Test results reported in patent US11446354B2, “Method of treatment” (Hexima Limited, priority 2014, dated 2022).
Read-outs that look alike come from different tables or passages of the source.

Experiments:
[1] = tested on: Trichophyton rubrum, T. interdigitale, Microsporum fulvum and C. albicans; assay: Inhibition assays summarised across the range of fungal pathogens; type: cell-based; conditions: summary of Table 3
Experimental: (§1) The inhibitory effects of the plant defensins on the growth of Trichophyton rubrum, T. interdigitale, Microsporum fulvum and C. albicans (obtained from the National Mycology Reference Centre, South Australia Pathology at the Women's and Children's Hospital, Adelaide, Australia) are measured essentially as described by Broekaert et al. (1990) FEMS Microbiol Lett 69:55-59. Spores of T. rubrum, T. interdigitale and M. fulvum are isolated from sporulating fungus growing on 1⁄2 strength Sabouraud dextrose agar (SDA). Spores were removed from the plates by the addition of 1⁄2 strength potato dextrose broth (PDB). C. albicans cells are grown in Yeast Peptone Broth (YPD) for 16 h. Spore and cell concentrations are measured using a hemocytometer. Antifungal assays are conducted in 96 well microtitre plates essentially as herein described. Wells are loaded with 20 μL of filter sterilized (0.22 μm syringe filter, Millipore) defensin (10× stock for each final concentration) or water and 80 μL of 5×10^4 spores/mL (T. rubrum, T, interdigitale, M. fulvum) or 5,000 cells/mL (C. albicans) in 1⁄2 strength PDB. The plates are incubated at 30° C. Fungal growth is assayed by measuring optical density at 595 nm ([…]) using a microtitre plate reader (SpectraMax Pro M2; Molecular Devices. Growth is allowed to proceed until the optical density (OD) of the fungus in the absence of any test defensin reached an OD of 0.2. Each test is performed in duplicate.

[2] = tested on: Human monocytic lymphoma (U937) cells; type: cell-based
Experimental: Human monocytic lymphoma (U937) cells are cultured in RPMI-1640 medium. All culture media are supplemented with 5-10% v/v fetal calf serum, 100 U/ml of penicillin, and 100 μg/ml of streptomycin. Cell lines are cultured at 37° C. in a humidified atmosphere containing 5% v/v CO2. Adherent cell lines are detached from the flask by adding a mixture containing 0.25% v/v trypsin and […]. A flow cytometry-based propidium iodide (PI) uptake assay is performed to analyze the ability of plant defensins to permeabilize U937 cells (essentially as described in Poon et al, 2014). Briefly, cells are suspended to 1×10^6 cells/ml in 0.1% v/v BSA/RPMI-1640 and incubated with plant defensins (10 μM) at 37° C. for 30 min. Samples are added to PBS containing a final concentration of 1 μg/ml PI and placed on ice. Samples are then analyzed immediately using the BD FACSCanto II Flow Cytometer and BD FACSDiva software v6.1.1. The resultant flow cytometry data is analyzed using FlowJo software v8.8.6. Cells are gated appropriately based on forward scatter and side scatter and cell permeabilization is defined by PI-positive staining.

[3] = type: in vitro ADME, Human; conditions: for Cumulative amount through nail as percent (of applied dose): human
Experimental: Penetration of NaD1 through human nails was measured according to the method of Hui et al. (2002) J Pharm Sci 91(1):189-195. Human toenails were obtained from ScienceCare (USA) and washed with phosphate buffered saline (details, PBS) before being placed on a kimwipe that had been soaked in PBS for 3 h to rehydrate the nail. The nail was then placed in a plastic nail adapter with a dosing area of 0.5×0.5 cm (Permagear, USA) and a cotton bud wetted with 75 microlitres of PBS was placed in the receptor chamber in contact with the underside of the nail.
The cotton bud in contact with the underside of the nail was removed after 24 h and every 24 h following. Protein that had passed through the nail was recovered from the cotton bud by washing twice with 500 μL of 0.1% v/v trifluoroacetic acid. Recovered protein was quantified using RP-HPLC.

Escherichia coli = assay: Inhibition of the growth of Escherichia coli; type: cell-based; conditions: 0.1625-10 μM, 18 hours, 37° C.
Experimental: A single E. coli colony was used to inoculate 5 ml of Luria-Bertani media and grown overnight at 37° C. The following day, the optical density of the culture was measured and the E. coli diluted to an optical density at 600 nm (OD600) of 0.01 in Mueller-Hinton Broth. Diluted E. coli were added to 96-well plates with defensins at concentrations of 10 μM, 5 μM, 2.5 μM, 1.25 μM, 0.625 μM, 0.3125 μM or 0.1625 μM. Plates were read at OD595 to obtain time zero data points. Plates were incubated at 37° C. for 18 hours before reading again at OD595 to assess the amount of E. coli growth.

Microsporum fulvum = assay: Antifungal growth inhibition assay, Microsporum fulvum; type: cell-based; conditions: summary of Table 3
Experimental: as §1, with “Wells are loaded with 20 μL of filter sterilized (0.22 μm syringe filter, Millipore) defensin (10× stock for each final concentration) or water and 80 μL of 5×10^4 spores/mL (T. rubrum, T, interdigitale, M. fulvum) or 5,000 cells/mL (C. albicans) in 1⁄2 strength PDB. The plates are incubated at 30° C.” left out

C. albicans = assay: Antifungal growth inhibition assay, C. albicans; type: cell-based, Candida albicans; conditions: summary of Table 3
Experimental: as §1, with “Wells are loaded with 20 μL of filter sterilized (0.22 μm syringe filter, Millipore) defensin (10× stock for each final concentration) or water and 80 μL of 5×10^4 spores/mL (T. rubrum, T, interdigitale, M. fulvum) or 5,000 cells/mL (C. albicans) in 1⁄2 strength PDB. The plates are incubated at 30° C.” left out

HXL004: Class I plant defensin from Nicotiana benthamiana, SEQ ID NO: 7 (RTCESQSHRFKGLCFSRSNCASVCHTEGFNGGHCRGFRRRCFCTRHC; HXL004 Nicotiana benthamiana)
Antifungal activity across the range of fungal pathogens, result in words [1]: intermediate activity across the range of pathogens | U937 cells permeabilized (PI-positive) [2]: 13% | Nail penetration, result in words [3]: able to penetrate nails faster and more effectively than the active ingredients of current topical onychomycosis therapies | Growth of E. coli in the presence of defensin (Escherichia coli): inhibited the growth of E. coli in a concentration dependent manner

C=C1CCN([C@H](C)[C@](O)(Cn2cncn2)c2ccc(F)cc2F)CC1 [Efinaconazole]
Cumulative amount through nail as percent (of applied dose) ([3]; 1 day, 10 % solution): 0.2% | Cumulative amount through nail as percent (of applied dose) ([3]; 2 day, 10 % solution): 0.4% | Cumulative amount through nail as percent (of applied dose) ([3]; 3 day, 10 %): 0.7% | Cumulative amount through nail as percent (of applied dose) ([3]; 4 day, 10 % solution): 0.8% | Cumulative amount through nail as percent (of applied dose) ([3]; 6 day, 10 %): 1.3% | Cumulative amount through nail as percent (of applied dose) ([3]; 9 day, 10 %): 2.0% | Cumulative amount through nail as percent (of applied dose) ([3]; 12 day, 10 % solution): 2.7% | Cumulative amount through nail as percent (of applied dose) ([3]; 15 day, 10 % solution): 3.3%

HXL013: Class I plant defensin from Glycine max, SEQ ID NO: 11 (KDCLTRRHGFQGRCLFDRQCAHVCRSDGFIGGQCRGPLRKCFCSRPC; HXL013 Glycine max)
Antifungal activity across the range of fungal pathogens, result in words [1]: intermediate activity across the range of pathogens | U937 cells permeabilized (PI-positive) [2]: 5%

LL37: human antimicrobial peptide LL37 used as a control (LLGDFFRKSKEKIGKEFKRIVQRIKDFLRNLVPRTES; Antibacterial peptide LL-37; UniProt P49913 134-170, looked up) [reference compound]
Growth of E. coli in the presence of defensin (Escherichia coli): inhibited the growth of E. coli in a concentration dependent manner

OB1OCc2cc(F)ccc21 [Tavaborole]
Cumulative amount through nail as percent (of applied dose) ([3]; 3 day, 10 %): 2.0% | Cumulative amount through nail as percent (of applied dose) ([3]; 6 day, 10 %): 3.7% | Cumulative amount through nail as percent (of applied dose) ([3]; 9 day, 10 %): 6.8% | Cumulative amount through nail as percent (of applied dose) ([3]; 12 day, 10 % solution): 10.7% | Cumulative amount through nail as percent (of applied dose) ([3]; 15 day, 10 % solution): 14.9%

HXL001: Class I plant defensin from Zea mays, SEQ ID NO: 4 (RHCLSQSHRFKGLCMSSNNCANVCQTENFPGGECKAEGATRKCFCKKIC; HXL001 Zea mays)
Antifungal activity across the range of fungal pathogens, result in words [1]: did not display any activity at the concentrations tested | U937 cells permeabilized (PI-positive) [2]: less than 2%

HXL035: Class I plant defensin from Picramnia pentandra, SEQ ID NO: 2 (KVCTKPSKFFKGLCGFDRDCTVACKKEGLASGFCQNKGFFNVVCVCRKPC; HXL035 Picramnia pentandra)
Antifungal activity across the range of fungal pathogens, result in words [1]: most effective plant defensins across the range of fungal pathogens

HXL002: Class I plant defensin from Triticum aestivum, SEQ ID NO: 5 (RDCLSQSHKFKGACLSSSNCAAVCRTENFPDGECHTHNFARKCFCKRAC; HXL002 Triticum aestivum)
Inhibition of M. fulvum, result in words (Microsporum fulvum): very poor inhibitors | U937 cells permeabilized (PI-positive) [2]: less than 2% | Inhibition of C. albicans, result in words (C. albicans): very poor inhibitors

NaD1: Solanaceous Class II plant defensin from Nicotiana alata, SEQ ID NO: 18 (RECKTESNTFPGICITKPPCRKACISEKFTDGHCSKILRRCLCTKPC; NaD1 Nicotiana alata) [reference compound]
U937 cells permeabilized (PI-positive) [2]: 33% | Nail penetration, result in words [3]: able to penetrate nails faster and more effectively than the active ingredients of current topical onychomycosis therapies | Growth of E. coli in the presence of defensin (Escherichia coli): did not inhibit growth of E. coli at the concentrations tested

HXL015: Class I plant defensin from Oryza sativa, SEQ ID NO: 12 (RHCLSQSHRFKGMCVSSNNCANVCRTESFPDGECKSHGLERKCFCKKVC; HXL015 Oryza sativa)
Antifungal activity across the range of fungal pathogens, result in words [1]: intermediate activity across the range of pathogens

Cc1cc(C2CCCCC2)n(O)c(=O)c1 [Ciclopirox]
Cumulative amount through nail as percent (of applied dose) ([3]; 3 day, 10 %): 0.03% | Cumulative amount through nail as percent (of applied dose) ([3]; 6 day, 10 %): 0.03% | Cumulative amount through nail as percent (of applied dose) ([3]; 9 day, 10 %): 0.04% | Cumulative amount through nail as percent (of applied dose) ([3]; 12 day, 10 % solution): 0.05% | Cumulative amount through nail as percent (of applied dose) ([3]; 15 day, 10 % solution): 0.06%

HXP4: Artificial defensin variant, Loop1B of a Class I defensin replaces that of the Solanaceous Class II defensin, SEQ ID NO: 21 (RECKTESHRFKGPCITKPPCRKACISEKFTDGHCSKILRRCLCTKPC; HXP4)
U937 cells permeabilized (PI-positive) [2]: 13%

HXL009: Class I plant defensin from Zea mays, SEQ ID NO: 9 (TVCMRHNNFYHGPCMSNKDCANSCVQHNLGVGGYCRGKIPFNKECMCTFEC; HXL009 Zea mays)
Antifungal activity across the range of fungal pathogens, result in words [1]: did not display any activity at the concentrations tested | U937 cells permeabilized (PI-positive) [2]: less than 2%

HXL005: Class I plant defensin from Taraxcum kok-saghyz, SEQ ID NO: 8 (KMCQTTSHAFSCVNDSGCSGSCEKQGFASGKCDGVRRRCTCYKKC; HXL005 Taraxcum kok-saghyz)
Antifungal activity across the range of fungal pathogens, result in words [1]: most effective plant defensins across the range of fungal pathogens | U937 cells permeabilized (PI-positive) [2]: ~25%

HXL012: Class I plant defensin from Amaranthus retroflexus, SEQ ID NO: 10 (RMCKAPSKLFRGMCGIRDSNCDSVCRAEGMAAGDCHGLRRRCICSRPC; HXL012 Amaranthus retroflexus)
Antifungal activity across the range of fungal pathogens, result in words [1]: intermediate activity across the range of pathogens | U937 cells permeabilized (PI-positive) [2]: less than 2% | Nail penetration, result in words [3]: did not penetrate the nail
